Measured values as given in ChEMBL document CHEMBL1135625, “Synthesis and antiinflammatory evaluation of 9-anilinoacridine and 9-phenoxyacridine derivatives” (J Med Chem, 2002).

Columns and labels:
Rattus norvegicus [1] = species: Rattus norvegicus; test: Inhibitory activity against mast cell degranulation by measuring the content of histamine in the supernatant; format: functional
RAW264.7 [2] = test: % inhibition against TNF-alpha release in RAW 264.7 cells in the supernatant; format: functional, Mus musculus; design: concentration or dose not given beside the values
Rattus norvegicus [3] = species: Rattus norvegicus; test: % inhibition against neutrophil degranulation by measuring the content of beta-glucuronidase in the supernatant; format: functional; design: concentration or dose not given beside the values
Rattus norvegicus [4] = species: Rattus norvegicus; test: Inhibitory activity against mast cell degranulation by measuring the content of beta-glucuronidase in the supernatant; format: functional
Rattus norvegicus [5] = species: Rattus norvegicus; test: Inhibitory activity against neutrophil degranulation by measuring the content of beta-glucuronidase in the supernatant; format: functional
Rattus norvegicus [6] = species: Rattus norvegicus; test: % inhibition against mast cell degranulation by measuring the content of beta-glucuronidase in the supernatant; format: functional; design: concentration or dose not given beside the values
Rattus norvegicus [7] = species: Rattus norvegicus; test: % inhibition against mast cell degranulation by measuring the content of histamine in the supernatant; format: functional; design: concentration or dose not given beside the values
RAW264.7 [8] = test: (§1) Inhibitory activity against TNF-alpha release in RAW 264.7 cells in the supernatant; format: functional, cell-based; details: Mus musculus
Rattus norvegicus [9] = species: Rattus norvegicus; test: Inhibitory activity against neutrophil degranulation by measuring the content of lysozyme in the supernatant; format: functional
N9 [10] = test: % inhibition against TNF-alpha release in N9 cells in the supernatant; format: functional, Mus musculus; design: concentration or dose not given beside the values
N9 [11] = test: (§2) Inhibitory activity against TNF-alpha release in N9 cells in the supernatant; format: functional, cell-based, Mus musculus
Rattus norvegicus [12] = species: Rattus norvegicus; test: % inhibition against neutrophil degranulation by measuring the content of lysozyme in the supernatant; format: functional; design: concentration or dose not given beside the values
Rattus norvegicus [13] = species: Rattus norvegicus; test: 50% inhibition against mast cell degranulation by measuring the content of beta-glucuronidase in the supernatant; format: functional
RAW264.7 [14] = test: 50% inhibition against TNF-alpha release in RAW 264.7 cells in the supernatant; format: functional, cell-based; details: Mus musculus
N9 [15] = test: 50% inhibition against TNF-alpha release in N9 cells in the supernatant; format: functional, cell-based; details: Mus musculus
Rattus norvegicus [16] = species: Rattus norvegicus; test: % inhibition against mast cell degranulation by measuring the content of beta-glucuronidase in the supernatant; details: concentration not given here
RAW264.7 [17] = test: as §1; format: functional, Mus musculus
N9 [18] = test: as §2; format: functional, Mus musculus

Structure (SMILES)	IC50 (Rattus norvegicus [1]) [µM]	Inhibition (RAW264.7 [2]) [%]	Inhibition (Rattus norvegicus [3]) [%]	IC50 (Rattus norvegicus [4]) [µM]	IC50 (Rattus norvegicus [5]) [µM]	Inhibition (Rattus norvegicus [6]) [%]	Inhibition (Rattus norvegicus [7]) [%]	IC50 (RAW264.7 [8]) [µM]	IC50 (Rattus norvegicus [9]) [µM]	Inhibition (N9 [10]) [%]	IC50 (N9 [11]) [µM]	Inhibition (Rattus norvegicus [12]) [%]	IC50 (Rattus norvegicus [13]) [µM]	IC50 (RAW264.7 [14]) [µM]	IC50 (N9 [15]) [nM]	inhibition (Rattus norvegicus [16]) [%]	Inhibition (RAW264.7 [17]) [%]	Inhibition (N9 [18]) [%]
CC(=O)c1ccc(Oc2c3ccccc3nc3ccccc23)cc1	> 30	45.6	42	> 30	> 30	44.6	43.8	> 30	18.7	23.9	> 3	–	–	–	–	–	–	–
CC(=O)/C=C/c1ccc(Oc2c3ccccc3nc3ccccc23)cc1	> 30	-15.7	32.4	> 30	> 30	7.7	-10.5	> 30	> 30	–	8.7	10.3	–	–	–	–	–	–
COc1ccc2nc3cc(Cl)ccc3c(Oc3ccc(C(C)=O)cc3)c2c1	> 30	33.1	10.4	> 30	> 30	26.4	7.2	> 30	> 30	45.9	> 10	-12.8	–	–	–	–	–	–
CC(=O)c1ccc(Oc2c3ccccc3nc3ccc(Cl)cc23)cc1	> 30	4.6	14.8	> 30	> 30	29.4	14.4	> 30	> 30	12.3	> 30	-16.4	–	–	–	–	–	–
COc1cccc2c(Oc3ccc(C(C)=O)cc3)c3ccccc3nc12	16	34.3	35.2	–	> 30	–	–	> 30	21.3	19.7	> 10	–	19.5	–	–	–	–	–
C/C(=N\O)c1ccc(Nc2c3ccccc3nc3ccccc23)cc1	> 30	44.9	–	> 30	4.4	29.5	23.3	–	8.2	40.1	–	–	–	> 10	> 3000	–	–	–
CN1CCN(CCCN2c3ccccc3Sc3ccc(C(F)(F)F)cc32)CC1 [TRIFLUOPERAZINE]	10.1	–	–	12.8	–	–	–	–	–	–	–	–	–	–	–	–	–	–
CC(=O)c1ccc(Nc2c3ccccc3nc3ccccc23)cc1	> 30	47.2	26.7	> 30	> 30	34.7	15.7	–	23.7	–	–	–	–	> 10	800	–	–	–
CC(=O)c1ccc(Oc2c3c(nc4ccccc24)CCCC3)cc1	> 30	48.9	42.1	> 30	> 30	13.3	5.7	> 30	> 30	-3.5	> 3	32.4	–	–	–	–	–	–
C[C@@H]1C[C@H]2[C@@H]3CCC4=CC(=O)C=C[C@]4(C)[C@@]3(F)[C@@H](O)C[C@]2(C)[C@@]1(O)C(=O)CO [DEXAMETHASONE]	–	–	–	–	–	–	–	0.42	–	–	0.074	–	–	–	–	–	–	–
COc1ccc2nc3ccccc3c(Oc3ccc(C(C)=O)cc3)c2c1	> 30	–	–	> 30	12.9	–	9.4	19.3	18.3	36.1	> 3	–	–	–	–	25	–	–
CC(=O)COc1ccc(Nc2c3ccccc3nc3ccccc23)cc1	> 30	–	35.8	> 30	> 30	1.3	19.2	–	> 30	6.6	–	21.6	–	8.2	> 1000	–	–	–
CCN(CC)CCCC(C)Nc1c2ccc(Cl)cc2nc2ccc(OC)cc12 (stereo not drawn) [QUINACRINE]	31.2	–	–	28.8	–	–	–	–	–	–	–	–	–	–	–	–	–	–
O=Cc1ccc(Oc2c3ccccc3nc3ccccc23)cc1	21.5	–	49.9	–	> 30	–	–	> 30	> 30	–	–	44.8	20.7	–	> 3000	–	17.2	19.9
CO/N=C(\C)c1ccc(Nc2c3ccccc3nc3ccccc23)cc1	20.8	7.2	46.9	–	> 30	–	–	–	> 30	39.3	–	15.4	21	> 30	> 3000	–	–	–
